In patent US20100267561A1, “HERBICIDAL PYRIDAZINONE DERIVATIVES” (priority 2007, published 2010):

Legend:
Type in all cases: in vivo
[1] = test system: velvetleaf (Abutilon theophrasti); test: Test A pre-/postemergence plant response
Summary of the method: (§1)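 Scores reflect visual plant injury relative to untreated controls on a 0–100 scale, recorded approximately 10 days after simultaneous preemergence soil spraying and postemergence spraying of one- to two-leaf seedlings grown in loam–sand.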

[2] = test system: pigweed (Amaranthus retroflexus); test: Test A pre-/postemergence plant response
Summary of the method: as §1

[3] = test system: morningglory (Ipomoea coccinea); test: Test A pre-/postemergence plant response
Summary of the method: as §1

[4] = test system: large crabgrass (Digitaria sanguinalis); test: Test A pre-/postemergence plant response
Summary of the method: as §1

[5] = test system: barnyardgrass (Echinochloa crus-galli); test: Test A pre-/postemergence plant response
Summary of the method: as §1

[6] = test system: wheat (Triticum aestivum); test: Test A pre-/postemergence plant response
Summary of the method: as §1

[7] = test system: canarygrass (Phalaris minor); test: Test B postemergence plant response; settings: for Canarygrass plant response rating: 8 g ai/ha, postemergence, 0-100 scale; for Plant response rating, Canarygrass: Postemergence
Summary of the method: (§2)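 Following treatment of plants 2 to 18 cm high after emergence, pots were held under glass for 13 to 15 days; efficacy was then graded visually, 100 denoting complete control and a dash no test result.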

[8] = test system: windgrass (Apera spica-venti); test: Test B postemergence plant response; settings: for Windgrass plant response rating: postemergence, 0-100 scale; for Plant response rating, Windgrass: Postemergence
Summary of the method: as §2

[9] = test system: winter barley (Hordeum vulgare); test: Test B postemergence plant response; settings: for Barley plant response rating: 8 g ai/ha, postemergence, 0-100 scale; for Plant response rating, Barley: Postemergence, scale 0 to 100, 0 no effect, 100 complete control
Summary of the method: as §2

[10] = test system: chickweed (Stellaria media); test: Test B postemergence plant response; settings: for Chickweed plant response rating: 8 g ai/ha, postemergence, 0-100 scale; for Plant response rating, Chickweed: Postemergence
Summary of the method: as §2

rice (Oryza sativa) = test: Test B flooded paddy test plant response
Summary of the method: (§3)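 Paddy-water application to 2-leaf plants in pots held under 3 cm of flooding; response is a 0–100 visual control rating against controls after 13 to 15 days, and a dash marks a missing result.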

[11] = test system: ducksalad (Heteranthera limosa); test: Test B flooded paddy test plant response
Summary of the method: as §3

[12] = test system: umbrella sedge (Cyperus difformis); test: Test B flooded paddy test plant response
Summary of the method: as §3

[13] = test system: barnyardgrass (Echinochloa crus-galli); test: Test B flooded paddy test plant response
Summary of the method: as §3

[14] = Postemergence, 31 g ai/ha, 0 to 100 scale, 0 no effect, 100 complete control
[15] = Postemergence, 125 g ai/ha, 0 to 100 scale, 0 no effect, 100 complete control
[16] = Preemergence, 31 g ai/ha, 0 to 100 scale, 0 is no effect, 100 is complete control
[17] = Preemergence, 125 g ai/ha, 0 to 100 scale (0 no effect, 100 complete control)
[18] = 62 g ai/ha, scale 0 to 100, 0 no effect, 100 complete control
[19] = Flood (flooded paddy test), 62 g ai/ha, scale 0 to 100, 0 no effect, 100 complete control
[20] = Flood (flooded paddy test), 250 g ai/ha, scale 0 to 100, 0 no effect, 100 complete control
[21] = Flood (flooded paddy test), 125 g ai/ha, scale 0 to 100, 0 no effect, 100 complete control
[22] = Flood, 31 g ai/ha, scale 0 to 100

## Cc1nn(C)c(=O)c(-n2nc(-c3ccc(Cl)cc3)cc2Cl)c1O [Compound 59]
[1]; [14]
  Plant response rating, Velvetleaf: 0
[1]; [15]
  Plant response rating, Velvetleaf: 0
[1]; [16]
  Plant response rating, Velvetleaf: 0
[1]; [17]
  Plant response rating, Velvetleaf: 0
[2]; [14]
  Plant response rating, Pigweed: 0
[2]; [15]
  Plant response rating, Pigweed: 0
[2]; [16]
  Plant response rating, Pigweed: 0
[2]; [17]
  Plant response rating, Pigweed: 0
[3]; [14]
  Plant response rating, Morningglory: 0
[3]; [15]
  Plant response rating, Morningglory: 0
[3]; [16]
  Plant response rating, Morningglory: 0
[3]; [17]
  Plant response rating, Morningglory: 0
[4]; [14]
  Plant response rating, Crabgrass, Large: 50
[4]; [15]
  Plant response rating, Crabgrass, Large: 90
[4]; [16]
  Plant response rating, Crabgrass, Large: 20
[4]; [17]
  Plant response rating, Crabgrass, Large: 50
[5]; [14]
  Plant response rating, Barnyardgrass: 90
[5]; [15]
  Plant response rating, Barnyardgrass: 100
[5]; [16]
  Plant response rating, Barnyardgrass: 90
[5]; [17]
  Plant response rating, Barnyardgrass: 100
[6]; [14]
  Plant response rating, Wheat: 0
[6]; [15]
  Plant response rating, Wheat: 60
[6]; [16]
  Plant response rating, Wheat: 0
[6]; [17]
  Plant response rating, Wheat: 50
[7]
  Canarygrass plant response rating: 0
[7]; 16 g ai/ha, scale 0 to 100
  Plant response rating, Canarygrass: 40
[7]; 31 g ai/ha, scale 0 to 100
  Plant response rating, Canarygrass: 55
[7]; [18]
  Plant response rating, Canarygrass: 70
[8]; 8 g ai/ha
  Windgrass plant response rating: 0
[8]; 16 g ai/ha, scale 0 to 100
  Plant response rating, Windgrass: 0
[8]; 31 g ai/ha, scale 0 to 100
  Plant response rating, Windgrass: 10
[8]; [18]
  Plant response rating, Windgrass: 50
[9]
  Barley plant response rating: 0
[9]; 16 g ai/ha
  Plant response rating, Barley: 0
[9]; 31 g ai/ha
  Plant response rating, Barley: 20
[9]; 62 g ai/ha
  Plant response rating, Barley: 50
[10]
  Chickweed plant response rating: 0
[10]; 16 g ai/ha, scale 0 to 100
  Plant response rating, Chickweed: 0
[10]; 31 g ai/ha, scale 0 to 100
  Plant response rating, Chickweed: 0
[10]; [18]
  Plant response rating, Chickweed: 0
Rice (Oryza sativa); [19]
  Plant response rating, Rice: 10
Rice (Oryza sativa); [20]
  Plant response rating, Rice: 25
[11]; [19]
  Plant response rating, Ducksalad: 0
[11]; [20]
  Plant response rating, Ducksalad: 20
[12]; [19]
  Plant response rating, Sedge, Umbrella: 0
[12]; [20]
  Plant response rating, Sedge, Umbrella: 30
[13]; [19]
  Plant response rating, Barnyardgrass: 0
[13]; [20]
  Plant response rating, Barnyardgrass: 50

## CCc1cc(-c2ccc(C(F)(F)F)cc2)nn1-c1c(O)c(OC)nn(C)c1=O [Compound 66]
[1]; [14]
  Plant response rating, Velvetleaf: 0
[1]; [15]
  Plant response rating, Velvetleaf: 0
[1]; [16]
  Plant response rating, Velvetleaf: 0
[1]; [17]
  Plant response rating, Velvetleaf: 0
[2]; [14]
  Plant response rating, Pigweed: 0
[2]; [15]
  Plant response rating, Pigweed: 0
[2]; [16]
  Plant response rating, Pigweed: 0
[2]; [17]
  Plant response rating, Pigweed: 0
[3]; [14]
  Plant response rating, Morningglory: 0
[3]; [15]
  Plant response rating, Morningglory: 0
[3]; [16]
  Plant response rating, Morningglory: 0
[3]; [17]
  Plant response rating, Morningglory: 0
[4]; [14]
  Plant response rating, Crabgrass, Large: 100
[4]; [15]
  Plant response rating, Crabgrass, Large: 100
[4]; [16]
  Plant response rating, Crabgrass, Large: 0
[4]; [17]
  Plant response rating, Crabgrass, Large: 70
[5]; [14]
  Plant response rating, Barnyardgrass: 100
[5]; [15]
  Plant response rating, Barnyardgrass: 100
[5]; [16]
  Plant response rating, Barnyardgrass: 10
[5]; [17]
  Plant response rating, Barnyardgrass: 100
[6]; [14]
  Plant response rating, Wheat: 90
[6]; [15]
  Plant response rating, Wheat: 100
[6]; [16]
  Plant response rating, Wheat: 60
[6]; [17]
  Plant response rating, Wheat: 90
[7]
  Canarygrass plant response rating: 40
[7]; 16 g ai/ha, scale 0 to 100
  Plant response rating, Canarygrass: 90
[7]; 31 g ai/ha, scale 0 to 100
  Plant response rating, Canarygrass: 95
[8]; 8 g ai/ha
  Windgrass plant response rating: 90
[8]; 16 g ai/ha
  Windgrass plant response rating: 100
[8]; 31 g ai/ha, scale 0 to 100
  Plant response rating, Windgrass: 100
[8]; [18]
  Plant response rating, Windgrass: 100
[9]
  Barley plant response rating: 90
[9]; 16 g ai/ha
  Plant response rating, Barley: 98
[9]; 31 g ai/ha
  Plant response rating, Barley: 100
[10]
  Chickweed plant response rating: 0
[10]; 16 g ai/ha, scale 0 to 100
  Plant response rating, Chickweed: 0
[10]; 31 g ai/ha, scale 0 to 100
  Plant response rating, Chickweed: 0
[10]; [18]
  Plant response rating, Chickweed: 0
Rice (Oryza sativa); [19]
  Plant response rating, Rice: 0
Rice (Oryza sativa); [21]
  Plant response rating, Rice: 0
Rice (Oryza sativa); [20]
  Plant response rating, Rice: 30
Rice (Oryza sativa); [22]
  Plant response rating, Rice: 0
[11]; [19]
  Plant response rating, Ducksalad: 0
[11]; [21]
  Plant response rating, Ducksalad: 0
[11]; [20]
  Plant response rating, Ducksalad: 0
[11]; [22]
  Plant response rating, Ducksalad: 0
[12]; [19]
  Plant response rating, Sedge, Umbrella: 0
[12]; [21]
  Plant response rating, Sedge, Umbrella: 0
[12]; [20]
  Plant response rating, Sedge, Umbrella: 0
[12]; [22]
  Plant response rating, Sedge, Umbrella: 0
[13]; [19]
  Plant response rating, Barnyardgrass: 0
[13]; [21]
  Plant response rating, Barnyardgrass: 20
[13]; [20]
  Plant response rating, Barnyardgrass: 20
[13]; [22]
  Plant response rating, Barnyardgrass: 0
